# Reference: patent US20250042886A1, “BIS(HETERO)ARYL THIOETHER OXADIAZINES AS FUNGICIDAL COMPOUNDS” (Bayer Aktiengesellschaft, priority 2021, published 2025)
# What was measured:
# [1] = Measurement of Log P values by HPLC on reversed phase columns (EEC directive 79/831 Annex V.A8); type: physicochemical; conditions: Table 1, compounds of formula (I); method [a]: LC-UV, acidic range, 0.1% formic acid in water and acetonitrile
# [2] = tested on: Botrytis cinerea; test: In vivo preventive test on Botrytis cinerea (grey mould); conditions: 500 ppm of active ingredient, sprayed on young gherkin or cabbage plants 24 h before inoculation, evaluated 4 to 5 days after inoculation, read-out: efficacy
# Method in brief: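 Young plants of gherkin or cabbage were sprayed with water-diluted compound formulated in DMSO/acetone/Tween 80, with solvent-only controls. Inoculation followed 24 h later by spraying an aqueous spore suspension of Botrytis cinerea onto leaves.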
# [3] = tested on: Sphaerotheca fuliginea; test: In vivo preventive test on Sphaerotheca fuliginea (powdery mildew on cucurbits); conditions: Podosphaera fuliginea, 192 h; 500 ppm of active ingredient, sprayed on young gherkin plants 24 h before inoculation; evaluated 8 days after inoculation; read-out: efficacy
# Protocol: (§1) B-3. […] The active ingredients were made soluble and homogenized in a mixture of Dimethyl sulfoxide/Acetone//Tween® 80 and then diluted in water to the desired concentration. The young plants of gherkin were treated by spraying the active ingredient prepared as described above. Control plants were treated only with an aqueous solution of Acetone/Dimethyl sulfoxide/Tween® 80. After 24 hours, the plants were contaminated by spraying the leaves with an aqueous suspension of Sphaerotheca fuliginea spores.
# [4] = tested on: Pyricularia oryzae; test: microbe, parasite or virus in culture; type: cell-based; conditions: 120 h, read-out: efficacy (inhibition of fungal growth), 20 ppm of active ingredient, liquid culture, 5 days incubation
# [5] = tested on: Colletotrichum lindemuthianum; test: Colletotrichum lindemuthianum in vitro cell test; type: cell-based; conditions: 144 h, 20 ppm of active ingredient, liquid culture, 6 days incubation, read-out: efficacy (inhibition of fungal growth)
# Method in brief: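 Inhibition of spore germination and mycelium growth, as absorbance relative to untreated wells, was read on day 6. Compounds from DMSO stocks were added to a spore suspension in glucose/peptone/yeast extract broth.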
# [6] = tested on: Botrytis cinerea; test: Botrytis cinerea in vitro cell test; type: cell-based; conditions: 144 h, 20 ppm of active ingredient, liquid culture, 6 days incubation, read-out: efficacy (inhibition of fungal growth)
# Method in brief: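 Liquid-culture germination/growth test: spore suspension in synthetic medium (salts, urea, KNO3, saccharose, trace elements, thiamine, biotin) with compound dissolved in DMSO. Absorbance of mycelial growth measured at day 6, compared with untreated wells to give inhibition.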
# [7] = tested on: Colletotrichum lindemuthianum; test: In vivo preventive test on Colletotrichum lindemuthianum (leaf spot on bean); conditions: 168 h, 500 ppm of active ingredient, sprayed on young bean plants 24 h before inoculation, evaluated 7 days after inoculation, read-out: efficacy
# Protocol: as §1, with “B-4.” for “B-3.”, “bean” for “gherkin”, “Colletotrichum lindemuthianum” for “Sphaerotheca fuliginea”
# [8] = tested on: Pyrenophora teres; test: Pyrenophora teres in vitro cell test; type: cell-based; conditions: 144 h, 20 ppm of active ingredient, liquid culture, 6 days incubation, read-out: efficacy (inhibition of fungal growth)
# Method in brief: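 Compounds in DMSO were added to P. teres spore suspensions in glucose/peptone/yeast-extract liquid medium, testing inhibition of spore germination and mycelium growth. After 6 days, mycelium growth was read by absorbance. Inhibition was calculated relative to fungicide-free control wells.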
# [9] = tested on: Septoria tritici; test: Septoria tritici in vitro cell test; type: cell-based; conditions: Zymoseptoria tritici, 168 h; 20 ppm of active ingredient; liquid culture, 7 days incubation; read-out: efficacy (inhibition of fungal growth)
# Protocol: B-11. Septoria tritici In Vitro Cell Test • Solvent: DMSO • Culture medium: 1 g KH2PO4 (VWR), 1 g K2HPO4 (VWR), 0.5 g Urea (VWR), 3 g KNO3 (Prolabo), 10 g saccharose (VWR), 0.5 g MgSO4, 7H2O (Sigma), 0.07 g CaCl2, 2H2O (Prolabo), 0.2 mg MnSO4, H2O (Sigma), 0.6 mg CuSO4, 5H2O (Sigma), 7.9 mg ZnSO4, 7H2O (Sigma), 0.1 mg H3BO3 (Merck), 0.14 mg NaMoO4, 2H2O (Sigma), 2 mg thiamine (Sigma), 0.1 mg biotine (VWR), 4 mg FeSO4, 7H2O (Sigma), QSP 1 liter • Inoculum: spore suspension Fungicides were solubilized in DMSO and the solution used to prepare the required range of concentrations. […] A spore suspension of S. tritici was prepared and diluted to the desired spore density. Fungicides were evaluated for their ability to inhibit spore germination and mycelium growth in liquid culture assay. The compounds were added in the desired concentration to the culture medium with spores. […] Inhibition of fungal growth was determined by comparing the absorbance values in wells containing the fungicides with the absorbance in control wells without fungicides.
# [10] = tested on: Alternaria brassicae; test: In vivo preventive test on Alternaria brassicae (leaf spot on radish or cabbage); conditions: 500 ppm of active ingredient, sprayed on young radish or cabbage plants 24 h before inoculation, evaluated 3 to 4 days after inoculation, read-out: efficacy
# Method in brief: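 Young radish or cabbage plants sprayed preventively with compound formulated in DMSO/acetone/Tween 80 and diluted in water; vehicle-treated plants as controls. Leaves inoculated by spraying an aqueous Alternaria brassicae spore suspension 24 h after treatment.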
# [11] = tested on: Fusarium culmorum; test: Fusarium culmorum in vitro cell test; type: cell-based; conditions: 120 h, 20 ppm of active ingredient, liquid culture, 5 days incubation, read-out: efficacy (inhibition of fungal growth)
# Method in brief: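 Spores in liquid mineral-salts/saccharose medium exposed to compounds (DMSO ≤1% final) for 5 days. Mycelium growth measured spectrometrically, with inhibition derived from absorbance relative to fungicide-free control wells.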
# [12] = tested on: Alternaria alternata; test: Alternaria alternata in vitro cell test; type: cell-based; conditions: 120 h, 20 ppm of active ingredient, liquid culture, 5 days incubation, read-out: efficacy (inhibition of fungal growth)
# Method in brief: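 Spores in glucose/mycological peptone/yeast extract liquid medium were exposed to DMSO-dissolved fungicides for 5 days. Inhibition of germination and mycelial growth was read spectrophotometrically, comparing absorbance against fungicide-free control wells.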
Compound,chromatographic logP [1],pest or weed control at 500 ppm [2],pest or weed control at 500 ppm [3],inhibition at 20 ppm [4],inhibition at 20 ppm [5],inhibition at 20 ppm [6],pest or weed control at 500 ppm [7],inhibition at 20 ppm [8],inhibition at 20 ppm [9],pest or weed control at 500 ppm [10],inhibition at 20 ppm [11],inhibition at 20 ppm [12]
Clc1ccc(C[C@@H]2CON=C(c3cc(Cl)nnc3Sc3cccc(Br)c3)N2)c(Cl)c1 (racemic) [Compound I-005],4.88,90 to 100%,80 to 89%,90 to 100%,90 to 100%,90 to 100%,,,,,,
Cc1ccc(C[C@H]2CON=C(c3nc(C)ncc3Sc3cccc(C(F)(F)F)c3)N2)c(C)c1 (racemic) [Compound I-007],5.21,90 to 100%,90 to 100%,70 to 79%,90 to 100%,90 to 100%,90 to 100%,90 to 100%,80 to 89%,,,
Cc1cccc(Sc2cnc(C)nc2C2=NOC[C@@H](Cc3ccc(C)cc3Cl)N2)c1 (racemic) [Compound I-010],5.17,90 to 100%,90 to 100%,,90 to 100%,,90 to 100%,90 to 100%,90 to 100%,80 to 89%,90 to 100%,
Cc1ccc(C[C@H]2CON=C(c3nc(C)ncc3Sc3cccc(C(F)(F)F)c3)N2)c(Cl)c1 (racemic) [Compound I-013],5.28,90 to 100%,90 to 100%,,90 to 100%,90 to 100%,90 to 100%,,90 to 100%,80 to 89%,,
"Cc1ccc(CC2CON=C(c3cc(Cl)nnc3Sc3cccc(C(F)(F)F)c3)N2)c(C)c1 (racemic) [Compound I-017, (5RS)-3-(6-chloro-3-{[3-(trifluoromethyl)phenyl]sulfanyl}pyridazin-4-yl)-5-(2,4-dimethylbenzyl)-5,6-dihydro-4H-1,2,4-oxadiazine]",5.27,90 to 100%,90 to 100%,80 to 89%,90 to 100%,90 to 100%,90 to 100%,,90 to 100%,90 to 100%,,80 to 89%
FC(F)(F)c1ccc(Sc2nnc(Cl)cc2C2=NOC[C@@H](Cc3ccc(Br)cc3Cl)N2)cc1 (racemic) [Compound I-035],5,90 to 100%,80 to 89%,,,,90 to 100%,,,,,
